In one series the target is Carbonic anhydrase 9 (Homo sapiens, UniProt Q16790). Put plainly: Inhibition of recombinant human CA-IX incubated for 15 mins by phenol red dye based stopped-flow CO2 hydration assay.
In series [1] the test system is MG-63. Put plainly: Cytotoxicity against human MG-63 cells at 10 uM incubated for 24 hrs by MTS assay. The series is classed as functional, cell-based.
The test system of series [2] is SK-BR-3. Put plainly: Cytotoxicity against human SK-BR-3 cells at 10 uM incubated for 24 hrs by MTS assay. The series is classed as functional, cell-based.
Series [3] can be described thus: Cytotoxicity against human HGF cells at 10 uM incubated for 24 hrs by MTS assay. Type of series: toxicity, cell-based.
Series [4] has as its system MeWo. Put plainly: Cytotoxicity against human MeWo cells at 10 uM incubated for 24 hrs by MTS assay. Type of series: functional, cell-based.
Series [5] can be described thus: Synergistic cytotoxicity against human HGF cells assessed as inhibition of cell viability incubated for 24 hrs in presence of DOX by MTS assay. Type of series: toxicity, cell-based.
The test system of series [6] is MeWo. Put plainly: Cytotoxicity against human MeWo cells assessed as inhibition of cell viability incubated for 24 hrs by MTS assay. Type of series: functional, cell-based.
Series [7] concerns MeWo. Put plainly: Synergistic cytotoxicity against human MeWo cells assessed as inhibition of cell viability at 10 uM incubated for 24 hrs in presence of DOX by MTS assay. Type of series: functional, cell-based.
For series [8], the system named is MeWo. The series is described as follows: Synergistic cytotoxicity against human MeWo cells assessed as inhibition of cell viability incubated for 24 hrs in presence of DOX by MTS assay. Type of series: functional, cell-based.
Series [9] in a line: Cytotoxicity against human HGF cells assessed as inhibition of cell viability incubated for 24 hrs by MTS assay. The series is classed as toxicity, cell-based.
The nature of series [10]: Synergistic cytotoxicity against human HGF cells assessed as cell viability at 10 uM incubated for 24 hrs in presence of DOX by MTS assay relative to control. The series is classed as toxicity, cell-based. Conditions: read-out: Activity.
Series [11] has as its system SK-BR-3. The series is described as follows: Cytotoxicity against human SK-BR-3 cells at 50 uM incubated for 24 hrs by MTS assay. The series is classed as functional, cell-based.
A short description of series [12]: Cytotoxicity against human HGF cells at 50 uM incubated for 24 hrs by MTS assay. Type of series: toxicity, cell-based.
For series [13], the system named is MG-63. Put plainly: Cytotoxicity against human MG-63 cells at 50 uM incubated for 24 hrs by MTS assay. The series is classed as functional, cell-based.
Series [14] has as its system MeWo. The series is described as follows: Cytotoxicity against human MeWo cells at 50 uM incubated for 24 hrs by MTS assay. Type of series: functional, cell-based.

Calls of active or inactive are those of the source. No cut-off for these calls is given here.

With `NS(=O)(=O)c1cccc(NC2=CC(c3ccc4c(c3)OCO4)N(c3cccc(S(N)(=O)=O)c3)C2=O)c1` (stereo unspecified), the Ki on Carbonic anhydrase 9 stood at 443 nM.

Consider `COc1ccccc1C1C=C(Nc2cccc(S(N)(=O)=O)c2)C(=O)N1c1cccc(S(N)(=O)=O)c1` (stereo unspecified), for which the Ki at Carbonic anhydrase 9 came out at 93.8 nM.

For `COc1cc(C2C=C(Nc3cccc(S(N)(=O)=O)c3)C(=O)N2c2cccc(S(N)(=O)=O)c2)ccc1O` (stereo unspecified), the Ki at Carbonic anhydrase 9 turned out to be 369 nM.

In the case of `NS(=O)(=O)c1cccc(NC2=CC(c3ccc(C(F)(F)F)cc3)N(c3cccc(S(N)(=O)=O)c3)C2=O)c1` (stereo unspecified), the Ki at Carbonic anhydrase 9 amounted to 831 nM.

Take `COc1ccc(C2C=C(Nc3cccc(S(N)(=O)=O)c3)C(=O)N2c2cccc(S(N)(=O)=O)c2)cc1O` (stereo unspecified): the outcome with MG-63 [1], with SK-BR-3 [2] and in the series with MeWo [4] was inactive. Also, the Ki at Carbonic anhydrase 9 turned out to be 95.1 nM. Besides, the Activity result in [3] is reported as “Non-toxic”.

For `NS(=O)(=O)c1cccc(NC2=CC(c3ccccc3)N(c3cccc(S(N)(=O)=O)c3)C2=O)c1` (stereo unspecified), the Ki at Carbonic anhydrase 9 was determined as 58 nM.

For `NS(=O)(=O)c1cccc(NC2=CC(c3ccc(F)cc3)N(c3cccc(S(N)(=O)=O)c3)C2=O)c1` (stereo unspecified), the outcome in the series on MG-63 [1], with SK-BR-3 [2] and in the series on MeWo [4] was inactive. Further, the IC50 at 24 h in series [5] is 19600 nM; in [9], 85800 nM. Also, at Carbonic anhydrase 9, the Ki was 50.1 nM. The results for the IC50 in the series on MeWo [6] and in the series on MeWo [8] were 68600 nM and 11200 nM, respectively. For the same compound, the Activity result in [3] is on record as “Non-toxic”. Besides, the outcome in the series on MeWo [7] was Active. Further, in [10], the viability at 24 h, 10 µM was greater than 70%.

With `N#Cc1ccc(C2C=C(Nc3cccc(S(N)(=O)=O)c3)C(=O)N2c2cccc(S(N)(=O)=O)c2)cc1` (stereo unspecified), on Carbonic anhydrase 9, the Ki stood at 345 nM.

In the case of `COc1ccc(O)c(C2C=C(Nc3cccc(S(N)(=O)=O)c3)C(=O)N2c2cccc(S(N)(=O)=O)c2)c1` (stereo unspecified), on Carbonic anhydrase 9, the Ki was 52.4 nM.

`CCCCc1ccc(C2C=C(Nc3cccc(S(N)(=O)=O)c3)C(=O)N2c2cccc(S(N)(=O)=O)c2)cc1` (stereo unspecified): the result with SK-BR-3 [11], with MG-63 [13] and in the series on MeWo [14] was Active. Further, the result with MG-63 [1], in the series with SK-BR-3 [2] and with MeWo [4] was inactive. The Ki on Carbonic anhydrase 9 amounted to 564 nM. In addition, the Activity entry in series [12] is listed as “Toxic”; in [3] it was “Non-toxic”.

Consider `COc1ccc(C2C=C(Nc3cccc(S(N)(=O)=O)c3)C(=O)N2c2cccc(S(N)(=O)=O)c2)cc1OC` (stereo unspecified), for which the Ki on Carbonic anhydrase 9 was found to be 87.2 nM.

As to `NS(=O)(=O)c1cccc(NC2=CC(c3ccco3)N(c3cccc(S(N)(=O)=O)c3)C2=O)c1` (stereo unspecified), on Carbonic anhydrase 9, the Ki stood at 79.9 nM.

In the case of `NS(=O)(=O)c1cccc(NC2=CC(c3cc(C(F)(F)F)cc(C(F)(F)F)c3)N(c3cccc(S(N)(=O)=O)c3)C2=O)c1` (stereo unspecified), the Ki on Carbonic anhydrase 9 is 539 nM.

Consider `NS(=O)(=O)c1cccc(NC2=CC(c3ccc(Br)cc3)N(c3cccc(S(N)(=O)=O)c3)C2=O)c1` (stereo unspecified), for which the Ki at Carbonic anhydrase 9 was determined as 386 nM.

For the compound `CC(C)c1ccc(C2C=C(Nc3cccc(S(N)(=O)=O)c3)C(=O)N2c2cccc(S(N)(=O)=O)c2)cc1` (stereo unspecified), the Ki at Carbonic anhydrase 9 came out at 615 nM.

For `NS(=O)(=O)c1cccc(NC2=CC(c3ccccc3O)N(c3cccc(S(N)(=O)=O)c3)C2=O)c1` (stereo unspecified), the outcome in the series on MG-63 [1], with SK-BR-3 [2] and with MeWo [4] was inactive. The IC50 at 24 h in [5] stood at 36400 nM; in series [9], 117000 nM. In addition, the Ki at Carbonic anhydrase 9 worked out at 345 nM. The IC50 is 94300 nM in the series with MeWo [6] and 12300 nM in the series on MeWo [8]. Further, the Activity result in [12] and in [3] was “Non-toxic” in each case. The result with MeWo [7] and in the series with MeWo [14] was Active. Besides, the viability at 24 h, 10 µM in series [10] is greater than 70%.

Regarding `COc1cccc(C2C=C(Nc3cccc(S(N)(=O)=O)c3)C(=O)N2c2cccc(S(N)(=O)=O)c2)c1O` (stereo unspecified), the outcome with MG-63 [1], with SK-BR-3 [2] and with MeWo [4] was inactive. Besides, the IC50 at 24 h was determined as 27500 nM in series [5] and 70700 nM in series [9]. Also, at Carbonic anhydrase 9, the inhibition constant (Ki) was found to be 7 nM. The IC50 in the series on MeWo [6] was 63300 nM; in the series with MeWo [8], 11300 nM. Moreover, the Activity result in series [3] is “Non-toxic”. The outcome in the series on MeWo [7] was Active. Besides, in series [10], the viability at 24 h, 10 µM is greater than 70%.

In the case of `COc1cc(C2C=C(Nc3cccc(S(N)(=O)=O)c3)C(=O)N2c2cccc(S(N)(=O)=O)c2)cc(OC)c1O` (stereo unspecified), the result in the series with MG-63 [1], in the series on SK-BR-3 [2] and in the series on MeWo [4] was inactive. Moreover, the Ki at Carbonic anhydrase 9 was 30.3 nM. Also, the Activity entry in series [3] is reported as “Non-toxic”.
